Test results taken from paper PMC6274076, “Discovery of Uracil Derivatives as Potent Inhibitors of Fatty Acid Amide Hydrolase” (Molecules, 2016).
Where “and” joins values, the source holds several entries; their conditions need not be identical. Identical values can stand only once. Like-named read-outs stand apart in the source and are kept apart here.

What was measured:
[1] = target: T1, recombinant rat FAAH (rFAAH) (Rattus norvegicus, UniProt P97612); assay: FAAH enzyme activity assay (AEA hydrolysis, HPLC-MS/MS); assay type: biochemical; conditions: for fold decrease in FAAH inhibitory potency vs. compound 1: compared with parent compound 1; for FAAH inhibitory activity (in words): rFAAH enzyme assay
T1 construct: expressed in transfected cells; host or cells: HEK293-rFAAH cells (homogenate supernatant)
T1 sequence (P97612 1-579): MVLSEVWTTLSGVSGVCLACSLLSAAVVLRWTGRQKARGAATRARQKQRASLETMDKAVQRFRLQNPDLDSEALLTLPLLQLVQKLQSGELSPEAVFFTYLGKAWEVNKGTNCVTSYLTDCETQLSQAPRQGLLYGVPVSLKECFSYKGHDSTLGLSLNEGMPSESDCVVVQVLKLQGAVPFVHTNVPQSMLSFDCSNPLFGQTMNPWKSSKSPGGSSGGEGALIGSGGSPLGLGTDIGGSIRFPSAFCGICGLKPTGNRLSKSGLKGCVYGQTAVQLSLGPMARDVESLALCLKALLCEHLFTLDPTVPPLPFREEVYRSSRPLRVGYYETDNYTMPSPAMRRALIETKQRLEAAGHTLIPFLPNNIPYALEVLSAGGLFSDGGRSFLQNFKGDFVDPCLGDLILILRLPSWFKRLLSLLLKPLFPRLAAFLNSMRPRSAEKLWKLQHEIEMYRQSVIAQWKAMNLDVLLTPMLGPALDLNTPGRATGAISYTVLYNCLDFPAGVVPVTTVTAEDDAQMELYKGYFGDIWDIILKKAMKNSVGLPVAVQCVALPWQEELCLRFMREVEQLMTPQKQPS
Method: The substituted 2,4-dioxopyrimidine-1-carboxamides and the related analogues described above were subjected to in vitro biological evaluation toward recombinant rat FAAH derived from HEK293-rFAAH cell. Enzyme assays were performed at 37 °C by incubating 30 µg of rFAAH protein with 25 μM anandamide as substrate in Tris-HCl buffer containing fatty acid-free BSA (0.05%). When the reactions were terminated, 1 nmol heptadecanoic acid (17:0 FFA) was added as an internal standard. […] The hydrolyzate of AEA (arachidonic acid), together with heptadecanoic acid was detected in HPLC/MS/MS to estimate the potency of rFAAH inhibition according to the methods previously described.
The inhibition effects of uracil derivatives toward recombinant rat FAAH (rFAAH) were assessed by enzyme activity assay. HEK293-rFAAH cells were harvested, washed with PBS, sonicated in 20 mM Tris-HCl (pH 7.5) containing 0.32 M sucrose, and centrifuged at 800× g for 15 min at 4 °C. The supernatants were collected and protein concentrations were measured by BCA protein assay kit (Pierce, Shanghai, China). FAAH proteins (30 μg) were incubated at 37 °C for 30 min in Tris buffer (50 mM, pH = 8.0) containing fatty acid-free BSA (0.05%) and 25 μM AEA (Sigma-Aldrich, Shanghai, China) as substrate. The above reactions were stopped by adding 200 μL methanol containing 1 nmol heptadecanoic acid (17:0 FFA) as internal standard. The reaction mixture was extracted with 4 mL chloroform and then vortex for 1 min. Lipid layer was separated by centrifugation at 3000× g for 10 min and then transferred to a clean 10 mL V-bottom glass tube and dried under nitrogen (N2) flow. After redissolved with 1 mL CHCl3, the lipid solution went through the solid-phase extraction, and was eluted by methanol/chloroform (v/v, 1/9). The elution containing FAEs and FFAs was dried under N2, and reconstituted in 100 μL methanol for HPLC-MS/MS analysis.
Samples were detected by an ABI 3200 Q-Trap mass spectrometer (Applied Biosystems/MDS Sciex) equipped with 1100-LC system (Agilent, Shanghai, China). The mobile phase for FFAs detection was consisted of MeOH and ultra-pure H2O (pH = 7.4, each containing 0.25% acetic acid and 5 mmol/L ammonium acetate), and the elution condition was 95% methanol keeping for 3 min at a flow rate of 1.0 mL·min^−^1. The column temperature was kept at 40 °C. Ion detection was monitored by ESI negative mode. The molecular ions were monitored at m/z 303 for AA, and m/z 269 for C17:0 FFA. Inhibition curves and IC50 values of each compounds was calculated by GraphPad Prism (version 5.01, GraphPad Software Inc., San Diego, CA, USA).

[2] = rFAAH protein 30 μg from HEK293-rFAAH cells, 25 μM anandamide, 37 °C, 30 min, Tris buffer pH 8.0, read-out: IC50 of FAAH Inhibition
[3] = as stated in abstract, read-out: IC50 (FAAH inhibition)

IC50 [1, 2] | Structure (SMILES) | also measured
1330 ± 130 nM | Nc1cn(C(=O)NCCc2ccccc2)c(=O)[nH]c1=O [Compound 17, 5-Amino-N-(2-phenylethyl)-2,4-dioxopyrimidine-1-carboxamide] | –
> 100000 nM | CCCCCCCn1cc(F)c(=O)[nH]c1=O [Compound 20, 5-Fluoro-1-heptyl-2,4-dioxopyrimidine] | FAAH inhibitory activity (in words) [1]: not inhibited at all
540 ± 70 nM | O=C(NCCc1ccccc1)n1cc(O)c(=O)[nH]c1=O [Compound 18, 5-hydroxy-N-(2-phenylethyl)-2,4-dioxopyrimidine-1-carboxamide] | –
> 100000 nM | CCCCCCCn1ccc(=O)[nH]c1=O [Compound 19, 1-Heptyl-2,4-dioxopyrimidine] | FAAH inhibitory activity (in words) [1]: not inhibited at all
120 ± 30 nM | O=C(Nc1cn(C(=O)NCCc2ccccc2)c(=O)[nH]c1=O)OCc1ccccc1 [Compound 16, Benzyl (2,4-dioxo-1-{[(2-phenylethyl)amino]carbonyl}-1,2,3,4-tetrahydro-5-pyrimidinyl)carbamate (2H)-carboxamide] | increase of FAAH inhibitory potency vs. compound 17 ([1]; compared with compound 17): about 10 times
> 100000 nM | CCCCCCNC(=O)Cn1cc(F)c(=O)[nH]c1=O [Compound 21, 2-[5-Fluoro-2,4-dioxopyrimidinyl]-N-hexylacetamide] | FAAH inhibitory activity (in words) [1]: total loss of the FAAH inhibitory activity
100 ± 10 nM | O=C(NCc1ccc(-c2ccccc2)cc1)n1cc(F)c(=O)[nH]c1=O [Compound 15, N-[2-(4-biphenyl)methyl]-5-fluoro-2,4-dioxo-pyrimidine-1-carboxamide] | fold less potent vs. compound 14 ([1]; compared with compound 14): 2 fold
53 ± 6 nM | O=C(NCc1ccc(-c2ccccc2)cc1)n1ccc(=O)[nH]c1=O [Compound 14, N-[2-(4-Biphenyl)methyl]-2,4-dioxopyrimidine-1-carboxamide] | IC50 [1, 3]: 53 nM
21 ± 4 nM | O=C(NCCc1ccccc1)n1cc(C(F)(F)F)c(=O)[nH]c1=O [Compound 11, N-(2-Phenylethyl)-5-trifluoromethyl-2,4-dioxopyrimidine-1-carboxamide] | IC50 [1, 3]: 21 nM

Further lines, the compound ahead of its results:

Structure (SMILES) | IC50 [1, 2] | also measured
CCCCCCNC(=O)n1c(C)cc(=O)[nH]c1=O [Compound 6, N-Hexyl-6-methyl-2,4-dioxopyrimidine-1-carboxamide] | 1270 ± 210 nM | fold decrease in FAAH inhibitory potency vs. compound 1 [1]: 8- to 10 fold
COc1cn(C(=O)NCCc2ccccc2)c(=O)[nH]c1=O [Compound 9, 5-Methoxy-N-(2-phenylethyl)-2,4-dioxopyrimidine-1-carboxamide] | 530 nM and 531 nM | –
CCCCCCNC(=O)n1ccc(=O)[nH]c1=O [Compound 1, N-Hexyl-2,4-dioxo-pyrimidine-1-carboxamide] | 110 ± 30 nM | –
O=C(NCc1ccc2ccccc2c1)n1ccc(=O)[nH]c1=O [Compound 12] | – | melting point: 84 to 84.6 °C
CCCCCCNC(=O)n1cc(C)c(=O)[nH]c1=O [Compound 5, N-Hexyl-5-methyl-2,4-dioxopyrimidine-1-carboxamide] | 250 ± 30 nM | fold decrease in FAAH inhibitory potency vs. compound 1 [1]: 2- to 3 fold
CCCCCCNC(=O)N1CCC(=O)NC1=O [Compound 2, N-Hexyl-2,4-dioxotetrahydropyrimidine-1-carboxamide] | > 10000 nM | FAAH inhibitory activity (in words) [1]: no inhibitory activity
O=C(NCCc1ccccc1)n1ccc(=O)[nH]c1=O [Compound 7, N-(2-Phenylethyl)-2,4-dioxopyrimidine-1-carboxamide] | 300 ± 70 nM | fold decrease in FAAH inhibitory potency vs. compound 1 [1]: 3 fold
Cc1cn(C(=O)NCCc2ccccc2)c(=O)[nH]c1=O [Compound 8, 5-Methyl-N-(2-phenylethyl)-2,4-dioxopyrimidine-1-carboxamide] | 1070 ± 140 nM | –
O=C(NCCc1ccccc1)n1cc(F)c(=O)[nH]c1=O [Compound 10, 5-Fluoro-N-(2-phenylethyl)-2,4-dioxopyrimidine-1-carboxamide] | 98 ± 10 nM | –
CCCCCCNC(=O)N1CCCNC1=O [Compound 3, N-Hexyl-2-oxotetrahydropyrimidine-1-carboxamide] | > 10000 nM | FAAH inhibitory activity (in words) [1]: loss of FAAH inhibitory activities
CCCCCCNC(=O)n1ccc(=O)n(C)c1=O [Compound 4, N-Hexyl-3-methyl-2,4-dioxopyrimidine-1-carboxamide] | 860 ± 80 nM | fold decrease in FAAH inhibitory potency vs. compound 1 [1]: 8- to 10 fold
